From ChEMBL document CHEMBL4665624, “Synthesis of 5-(4-(1H-phenanthro[9,10-d]imidazol-2-yl)benzylidene)thiazolidine-2,4-dione as promising DNA and serum albumin-binding agents and evaluation of antitumor activity” (Eur J Med Chem, 2019)

Assays:
CCRF-CEM = assay: Antitumor activity against human CCRF-CEM cells assessed as cell growth inhibition at 10 uM incubated for 48 hrs by sulforhodamine B assay; assay type: functional; details: read-out: GI
HL-60(TB) = assay: Antitumor activity against human HL-60(TB) cells assessed as cell growth inhibition at 10 uM incubated for 48 hrs by sulforhodamine B assay; assay type: functional; details: read-out: GI
K562 = assay: Antitumor activity against human K562 cells assessed as cell growth inhibition at 10 uM incubated for 48 hrs by sulforhodamine B assay; assay type: functional; details: read-out: GI
MOLT-4 = assay: Antitumor activity against human MOLT4 cells assessed as cell growth inhibition at 10 uM incubated for 48 hrs by sulforhodamine B assay; assay type: functional; details: read-out: GI
RPMI-8226 = assay: Antitumor activity against human RPMI8226 cells assessed as cell growth inhibition at 10 uM incubated for 48 hrs by sulforhodamine B assay; assay type: functional; details: read-out: GI
SR = assay: Antitumor activity against human SR cells assessed as cell growth inhibition at 10 uM incubated for 48 hrs by sulforhodamine B assay; assay type: functional; details: read-out: GI
EKVX = assay: Antitumor activity against human EKVX cells assessed as cell growth inhibition at 10 uM incubated for 48 hrs by sulforhodamine B assay; assay type: functional; details: read-out: GI
HOP-92 = assay: Antitumor activity against human HOP92 cells assessed as cell growth inhibition at 10 uM incubated for 48 hrs by sulforhodamine B assay; assay type: functional; details: read-out: GI
NCI-H226 = assay: Antitumor activity against human NCI-H226 assessed as cell growth inhibition at 10 uM incubated for 48 hrs by sulforhodamine B assay; assay type: functional; details: read-out: GI
NCI-H23 = assay: Antitumor activity against human NCI-H23 cells assessed as cell growth inhibition at 10 uM incubated for 48 hrs by sulforhodamine B assay; assay type: functional; details: read-out: GI
NCI-H460 = assay: Antitumor activity against human NCI-H460 assessed as cell growth inhibition at 10 uM incubated for 48 hrs by sulforhodamine B assay; assay type: functional; details: read-out: GI
NCI-H522 = assay: Antitumor activity against human NCI-H522 cells assessed as cell growth inhibition at 10 uM incubated for 48 hrs by sulforhodamine B assay; assay type: functional; details: read-out: GI
COLO 205 = assay: Antitumor activity against human COLO205 cells assessed as cell growth inhibition at 10 uM incubated for 48 hrs by sulforhodamine B assay; assay type: functional; details: read-out: GI
HCC 2998 = assay: Antitumor activity against human HCC2998 cells assessed as cell growth inhibition at 10 uM incubated for 48 hrs by sulforhodamine B assay; assay type: functional; details: read-out: GI
HCT-116 = assay: Antitumor activity against human HCT116 cells assessed as cell growth inhibition at 10 uM incubated for 48 hrs by sulforhodamine B assay; assay type: functional; details: read-out: GI
HCT-15 = assay: Antitumor activity against human HCT15 cells assessed as cell growth inhibition at 10 uM incubated for 48 hrs by sulforhodamine B assay; assay type: functional; details: read-out: GI
HT-29 = assay: Antitumor activity against human HT-29 cells assessed as cell growth inhibition at 10 uM incubated for 48 hrs by sulforhodamine B assay; assay type: functional; details: read-out: GI
KM12 = assay: Antitumor activity against human KM12 cells assessed as cell growth inhibition at 10 uM incubated for 48 hrs by sulforhodamine B assay; assay type: functional; details: read-out: GI
SF-268 = assay: Antitumor activity against human SF268 cells assessed as cell growth inhibition at 10 uM incubated for 48 hrs by sulforhodamine B assay; assay type: functional; details: read-out: GI
SF-295 = assay: Antitumor activity against human SF295 cells assessed as cell growth inhibition at 10 uM incubated for 48 hrs by sulforhodamine B assay; assay type: functional; details: read-out: GI
SNB-19 = assay: Antitumor activity against human SNB-19 cells assessed as cell growth inhibition at 10 uM incubated for 48 hrs by sulforhodamine B assay; assay type: functional; details: read-out: GI
SNB-75 = assay: Antitumor activity against human SNB-75 cells assessed as cell growth inhibition at 10 uM incubated for 48 hrs by sulforhodamine B assay; assay type: functional; details: read-out: GI
U-251 = assay: Antitumor activity against human U251 cells assessed as cell growth inhibition at 10 uM incubated for 48 hrs by sulforhodamine B assay; assay type: functional; details: read-out: GI
LOX IMVI = assay: Antitumor activity against human LOX IMVI cells assessed as cell growth inhibition at 10 uM incubated for 48 hrs by sulforhodamine B assay; assay type: functional; details: read-out: GI
Malme-3M = assay: Antitumor activity against human MALME-3M cells assessed as cell growth inhibition at 10 uM incubated for 48 hrs by sulforhodamine B assay; assay type: functional; details: read-out: GI
M14 = assay: Antitumor activity against human M14 cells assessed as cell growth inhibition at 10 uM incubated for 48 hrs by sulforhodamine B assay; assay type: functional; details: read-out: GI
MDA-MB-435 = assay: Antitumor activity against human MDA-MB-435 cells assessed as cell growth inhibition at 10 uM incubated for 48 hrs by sulforhodamine B assay; assay type: functional; details: read-out: GI
SK-MEL-28 = assay: Antitumor activity against human SK-MEL-28 cells assessed as cell growth inhibition at 10 uM incubated for 48 hrs by sulforhodamine B assay; assay type: functional; details: read-out: GI
UACC-62 = assay: Antitumor activity against human UACC-62 cells assessed as cell growth inhibition at 10 uM incubated for 48 hrs by sulforhodamine B assay; assay type: functional; details: read-out: GI
IGROV-1 = assay: Antitumor activity against human IGROV1 cells assessed as cell growth inhibition at 10 uM incubated for 48 hrs by sulforhodamine B assay; assay type: functional; details: read-out: GI
OVCAR-3 = assay: Antitumor activity against human OVCAR-3 cells assessed as cell growth inhibition at 10 uM incubated for 48 hrs by sulforhodamine B assay; assay type: functional; details: read-out: GI
OVCAR-4 = assay: Antitumor activity against human OVCAR-4 cells assessed as cell growth inhibition at 10 uM incubated for 48 hrs by sulforhodamine B assay; assay type: functional; details: read-out: GI
OVCAR-8 = assay: Antitumor activity against human OVCAR-8 cells assessed as cell growth inhibition at 10 uM incubated for 48 hrs by sulforhodamine B assay; assay type: functional; details: read-out: GI
NCI/ADR-RES = assay: Antitumor activity against human NCI/ADR-RES cells assessed as cell growth inhibition at 10 uM incubated for 48 hrs by sulforhodamine B assay; assay type: functional; details: read-out: GI
SK-OV-3 = assay: Antitumor activity against human SK-OV-3 cells assessed as cell growth inhibition at 10 uM incubated for 48 hrs by sulforhodamine B assay; assay type: functional; details: read-out: GI
786-0 = assay: Antitumor activity against human 786-0 cells assessed as cell growth inhibition at 10 uM incubated for 48 hrs by sulforhodamine B assay; assay type: functional; details: read-out: GI
A498 = assay: Antitumor activity against human A498 cells assessed as cell growth inhibition at 10 uM incubated for 48 hrs by sulforhodamine B assay; assay type: functional; details: read-out: GI
ACHN = assay: Antitumor activity against human ACHN cells assessed as cell growth inhibition at 10 uM incubated for 48 hrs by sulforhodamine B assay; assay type: functional; details: read-out: GI
RXF 393 = assay: Antitumor activity against human RXF 393 cells assessed as cell growth inhibition at 10 uM incubated for 48 hrs by sulforhodamine B assay; assay type: functional; details: read-out: GI
SN12C = assay: Antitumor activity against human SN12C cells assessed as cell growth inhibition at 10 uM incubated for 48 hrs by sulforhodamine B assay; assay type: functional; details: read-out: GI
UO-31 = assay: Antitumor activity against human UO-31 cells assessed as cell growth inhibition at 10 uM incubated for 48 hrs by sulforhodamine B assay; assay type: functional; details: read-out: GI
PC-3 = assay: Antitumor activity against human PC-3 cells assessed as cell growth inhibition at 10 uM incubated for 48 hrs by sulforhodamine B assay; assay type: functional; details: read-out: GI
MCF7 = assay: Antitumor activity against human MCF7 cells assessed as cell growth inhibition at 10 uM incubated for 48 hrs by sulforhodamine B assay; assay type: functional; details: read-out: GI
MDA-MB-231 = assay: Antitumor activity against human MDA-MB-231/ATCC cells assessed as cell growth inhibition at 10 uM incubated for 48 hrs by sulforhodamine B assay; assay type: functional; details: read-out: GI
Hs-578T = assay: Antitumor activity against human HS 578T cells assessed as cell growth inhibition at 10 uM incubated for 48 hrs by sulforhodamine B assay; assay type: functional; details: read-out: GI
BT-549 = assay: Antitumor activity against human BT-549 cells assessed as cell growth inhibition at 10 uM incubated for 48 hrs by sulforhodamine B assay; assay type: functional; details: read-out: GI
MDA-MB-468 = assay: Antitumor activity against human MDA-MB-468 cells assessed as cell growth inhibition at 10 uM incubated for 48 hrs by sulforhodamine B assay; assay type: functional; details: read-out: GI
SW-620 = assay: Antitumor activity against human SW620 cells assessed as cell growth inhibition at 10 uM incubated for 48 hrs by sulforhodamine B assay; details: SW-620, 48 h, read-out: GI

Oc1ccccc1-c1nc2c3ccccc3c3ccccc3c2[nH]1
inhibition of growth at 10 µM (CCRF-CEM): < 10%
inhibition of growth at 10 µM (HL-60(TB)): < 10%
inhibition of growth at 10 µM (K562): 12.1%
inhibition of growth at 10 µM (MOLT-4): < 10%
inhibition of growth at 10 µM (RPMI-8226): 13.3%
inhibition of growth at 10 µM (SR): 10.8%
inhibition of growth at 10 µM (EKVX): 19.4%
inhibition of growth at 10 µM (HOP-92): 16.4%
inhibition of growth at 10 µM (NCI-H226): 11.6%
inhibition of growth at 10 µM (NCI-H23): 10.7%
inhibition of growth at 10 µM (NCI-H460): < 10%
inhibition of growth at 10 µM (NCI-H522): < 10%
inhibition of growth at 10 µM (COLO 205): < 10%
inhibition of growth at 10 µM (HCC 2998): < 10%
inhibition of growth at 10 µM (HCT-116): 12.3%
inhibition of growth at 10 µM (HCT-15): < 10%
inhibition of growth at 10 µM (HT-29): < 10%
inhibition of growth at 10 µM (KM12): < 10%
inhibition of growth at 10 µM (SF-268): < 10%
inhibition of growth at 10 µM (SF-295): < 10%
inhibition of growth at 10 µM (SNB-19): < 10%
inhibition of growth at 10 µM (SNB-75): 11.1%
inhibition of growth at 10 µM (U-251): < 10%
inhibition of growth at 10 µM (LOX IMVI): < 10%
inhibition of growth at 10 µM (Malme-3M): < 10%
inhibition of growth at 10 µM (M14): < 10%
inhibition of growth at 10 µM (MDA-MB-435): < 10%
inhibition of growth at 10 µM (SK-MEL-28): < 10%
inhibition of growth at 10 µM (UACC-62): 10.1%
inhibition of growth at 10 µM (IGROV-1): 23.5%
inhibition of growth at 10 µM (OVCAR-3): < 10%
inhibition of growth at 10 µM (OVCAR-4): < 10%
inhibition of growth at 10 µM (OVCAR-8): < 10%
inhibition of growth at 10 µM (NCI/ADR-RES): < 10%
inhibition of growth at 10 µM (SK-OV-3): < 10%
inhibition of growth at 10 µM (786-0): < 10%
inhibition of growth at 10 µM (A498): < 10%
inhibition of growth at 10 µM (ACHN): 11.7%
inhibition of growth at 10 µM (RXF 393): < 10%
inhibition of growth at 10 µM (SN12C): 24.4%
inhibition of growth at 10 µM (UO-31): 37.9%
inhibition of growth at 10 µM (PC-3): 11.8%
inhibition of growth at 10 µM (MCF7): 26.3%
inhibition of growth at 10 µM (MDA-MB-231): 23.8%
inhibition of growth at 10 µM (Hs-578T): < 10%
inhibition of growth at 10 µM (BT-549): < 10%
inhibition of growth at 10 µM (MDA-MB-468): < 10%
inhibition of growth at 10 µM (SW-620): < 10%
